This is an account of results in patent US5869460A, “Sulfated and phosphated saccharide derivatives, process for the preparation of the same and use thereof” (Sanwa Kaguku Kenkyusho Co., Ltd., priority 1995, dated 1999).

The test system of assay [1] is lung injury model, lgG immunocomplex. The conditions noted are these: INT. IMMUNOL. 7, 1107 (1995); cited from earlier work.
Assay [2] relates to lung injury model, activation of whole body complements by CVF. As to conditions: INT. IMMUNOL. 7, 1107 (1995); cited from earlier work.
The next assay relates to L-selectin. The conditions noted are these: in vitro, plastic plate; BIOCHEM. BIOPHY. RES. COM. 190, 426 (1993); cited from earlier work.
Assay [3] relates to lung damage model induced by cobra venom factor (CVF); infiltration in neutrocyte (myeloperoxidase). As to the kind of experiment: Anti-inflammatory action to lung damage model induced by CVF: myeloperoxidase activity as index of infiltration in neutrocyte. In kind it is in vivo, Lewis rats. As to conditions: for inhibition in vivo at 0.2 mg: Rattus norvegicus, iv, 0.5 h, read-out: Inhibition rate (%), myeloperoxidase activity as index of infiltration in neutrocyte. The protocol:
(§1) Anti-inflammatory action to lung damage model induced by CVF Compounds obtained by Examples and an exemplary known compound (sulfatide) were selected as Test Compounds to check an inflammatory action thereof to a lung damage model induced by cobra venom factor (CVF), in accordance with the method described by M. S. Mulligan et al ["J. IMMUNOL.", Vol.151, page 6410 (1993); and "INT. IMMUNOL.", Vol. 7, page 1107 (1995)].
(§2) Namely, the test compound was intravenously injected by an amount of 0.2 mg/rat to test animals (Lewis rats, age of 8 weeks, 5 animals in each group). After lapsed 5 minutes from administration, CVF (20U/2 ml/kg) was administered in a tail vein, and after 30 minutes, a laparotomy was carried out under nembutal anesthesia to perfuse the lung with phosphate-buffered saline (PBS, pH7.4) by injecting the same from right ventricle and to exenterate the lung. The extracted lung was homogenized with phosphate buffer (pH 7.4), centrifuged to collect a supernatant, and determined absorbance which was admitted as index of bleeding (It measures an amount of hemoglobin and thus detection wave-length was set to 541 nm).
On the other hand, the precipitation obtained by centrifugation was sonicated in the presence of cetrimide and centrifuged to obtain a supernatant, an activity myeloperoxidase therein being measured as an index of infiltration in neutrocyte.
(§3) Each inhibition rate (%) was calculated by
(§4) 100×[1-(value of test compound-value of negative control)/(value of positive control-value of negative control)].

The test system of assay [4] is lung damage model induced by cobra venom factor (CVF); bleeding. Nature of the assay: Anti-inflammatory action to lung damage model induced by CVF: index of bleeding (hemoglobin absorbance, 541 nm, in lung homogenate supernatant). The conditions noted are these: for inhibition in vivo at 0.2 mg: Rattus norvegicus, iv, 0.5 h, read-out: Inhibition rate (%), index of bleeding. In kind it is in vivo, Lewis rats. The protocol: as §1, §2, §3, §4

On to `CCCCCCCCCCCCCCC(CCCCCCCCCCCCCC)CO[C@@H]1O[C@H](CO)[C@H](O)[C@H](OS(=O)(=O)O)[C@H]1O` [2-tetradesyl hexadesyl β-D-galactopyranoside 3-sulfate], for which the inflammation inhibition effect entry in assay [1] and in assay [2] was “shows inflammation inhibition effect” each time. Further, the “binding specificity to L-selectin” value in the assay on L-selectin is recorded as “show a binding specificity to L-selectin”.
Take Sulfatide [reference compound]: the “Inhibition rate (%), myeloperoxidase activity as index of infiltration in neutrocyte” value in assay [3] (0.2 mg/rat i.v., 5 min before CVF (20U/2 ml/kg, tail vein), lung precipitation, Table 2) is 50%. Further, the “Inhibition rate (%), index of bleeding” value in assay [4] (0.2 mg/rat i.v., 5 min before CVF (20U/2 ml/kg, tail vein), hemoglobin absorbance at 541 nm, Table 1) was 53%. The inflammation inhibition effect result in assay [1] and in assay [2] was “shows inflammation inhibition effect” in each case.
Turning to `CCCCCCCCCCCCCCC(CCCCCCCCCCCCCC)CO[C@@H]1O[C@H](CO)[C@@H](O[C@@H]2O[C@H](CO)[C@H](O)[C@H](OS(=O)(=O)O)[C@H]2O)[C@H](O)[C@H]1O` [2-tetradesyl hexadesyl O-β-D-galactopyranosyl-(1→4)-β-D-glucopyranoside 3'-sulfate], the “binding specificity to L-selectin” value with L-selectin is listed as “show a binding specificity to L-selectin”.
As for `CCCC(CCC)CO[C@@H]1O[C@H](COS(=O)(=O)O)[C@H](O)[C@H](OS(=O)(=O)O)[C@H]1OS(=O)(=O)O` [Example 7-1, Trisodium 2-propylpentyl β-D-galactopyranoside 2,3,6-trisulfate], the inhibition in vivo at 0.2 mg worked out at 26% in assay [3] and 36% in assay [4].
Consider `CCCCCCCCCCCCCCC(CCCCCCCCCCCCCC)CO[C@@H]1O[C@H](COS(=O)(=O)O)[C@@H](O[C@@H]2O[C@H](COS(=O)(=O)O)[C@H](O)[C@H](OS(=O)(=O)O)[C@H]2O)[C@H](O)[C@H]1O` [Example 11-2, trisodium 2-tetradecylhexadecyl O-β-D-galactopyranosyl-(1→4)-β-D-glucopyranoside 3',6',6-trisulfate], for which the inhibition in vivo at 0.2 mg worked out at 70% in assay [3] and 82% in assay [4].
On the same counts, the results for `CCCCCCCCCCCCCCC(CCCCCCCCCCCCCC)CO[C@@H]1O[C@H](CO)[C@H](OP(=O)(O)O)[C@H](OP(=O)(O)O)[C@H]1O` [Example 17, Tetrasodium 2-tetradecylhexadecyl β-D-galactopyranoside 3,4-dinhosphate] are 73% and 74%.
On the same counts, the results for `CCCC(CCC)CO[C@@H]1O[C@H](CO)[C@@H](O)[C@H](OP(=O)(O)O)[C@H]1OP(=O)(O)O` [Example 19, Tetrasodium 2-propylpentyl β-D-glucopyranoside 2,3-diphosphate] are 39% and 43%.
On the same counts, the results for `CCCC(CCC)CO[C@@H]1O[C@H](CO)[C@@H](OP(=O)(O)O)[C@H](OP(=O)(O)O)[C@H]1OP(=O)(O)O` [Example 20, Hexasodium 2-propylpentyl δ-D-glucopyranoside 2,3,4-triphosphate] are 40% and 45%.
As for `CCCC(CCC)CO[C@@H]1O[C@H](CO)[C@@H](O[C@@H]2O[C@H](COS(=O)(=O)O)[C@H](O)[C@H](OS(=O)(=O)O)[C@H]2O)[C@H](O)[C@H]1O` [Example 10-2, disodium 2-propylpentyl O-β-D-galactopyranosyl-(1→4)-β-D-glucopyranoside 3',6'-disulfate], the inhibition in vivo at 0.2 mg is 82% in assay [3] and 63% in assay [4].
On the same counts, the results for `CC(C)CO[C@@H]1O[C@H](COP(=O)(O)O)[C@H](OP(=O)(O)O)[C@H](OP(=O)(O)O)[C@H]1OP(=O)(O)O` [Example 12, Octasodium 2-methylpropyl β-D-galactopyranoside 2,3,4,6-tetranhosphate] are 30% and 0%.
Consider `CC(C)CO[C@@H]1O[C@H](CO)[C@@H](O[C@@H]2O[C@H](COS(=O)(=O)O)[C@H](O)[C@H](OS(=O)(=O)O)[C@H]2O)[C@H](O)[C@H]1O` [Example 9-2, disodium 2-methylpropyl O-β-D-galactopyranosyl-(1→4)-β-D-glucopyranoside 3',6'-disulfate], for which the inhibition in vivo at 0.2 mg was found to be 86% in assay [3] and 100% in assay [4].
For `CCCC(CCC)CO[C@@H]1O[C@H](CO)[C@H](O)[C@H](OS(=O)(=O)O)[C@H]1O[C@@H]1O[C@@H](C)[C@@H](O)[C@@H](O)[C@@H]1O` [Example 23-1, Sodium 2-propylpentyl O-α-L-fucopyranosyl-(1→2)-β-D-galactopyranoside 3-sulfate], the inhibition in vivo at 0.2 mg in assay [3] came to 51%; in assay [4], 53%.
On the same counts, the results for `CCCC(CCC)CO[C@@H]1O[C@H](COS(=O)(=O)O)[C@H](O)[C@H](O)[C@H]1O` [Example 5, Sodium 2-propylpentyl β-D-galactopyranoside 6-sulfate] are 47% and 52%.
As for `CCCCCCCCCCCCCCC(CCCCCCCCCCCCCC)CO[C@@H]1O[C@H](CO)[C@H](O)[C@H](OS(=O)(=O)O)[C@H]1O[C@@H]1O[C@@H](C)[C@@H](O)[C@@H](O)[C@@H]1O` [Example 27-1, Sodium 2-tetradecylhexadecyl O-α-L-fucopyranosyl-(1→2)-β-D-galactopyranoside 3-sulfate], the inhibition in vivo at 0.2 mg amounted to 61% in assay [3] and 65% in assay [4].
On to `CC(C)CO[C@@H]1O[C@H](CO)[C@H](O)[C@H](OS(=O)(=O)O)[C@H]1O` [Example 1-1, Sodium 2-methylpropyl β-D-galactopyranoside 3-sulfate], for which the inhibition in vivo at 0.2 mg in assay [3] and in assay [4] was 22% in each case.
On to `CCCC(CCC)CO[C@@H]1O[C@H](CO)[C@@H](O[C@@H]2O[C@H](CO)[C@H](OP(=O)(O)O)[C@H](OP(=O)(O)O)[C@H]2O)[C@H](O)[C@H]1O` [Example 21, Tetrasodium 2-propylpentyl O-β-D-galactopyranosyl-(1→4)-β-D-glucopyranoside 3',4'-diphosphate], for which the inhibition in vivo at 0.2 mg in assay [3] is 52%; in assay [4], 64%.
As to `CC(C)CO[C@@H]1O[C@H](COS(=O)(=O)O)[C@H](OS(=O)(=O)O)[C@H](OS(=O)(=O)O)[C@H]1OS(=O)(=O)O` [Example 3-2, tetrasodium 2-methylpropyl β-D-galactopyranoside 2,3,4,6-tetrasulfate], the results for the inhibition in vivo at 0.2 mg in assay [3] and in assay [4] were 24% and 49%, respectively.
On the same counts, the results for `CCCCCCCCCCCCCCC(CCCCCCCCCCCCCC)CO[C@@H]1O[C@H](CO)[C@@H](O[C@@H]2O[C@H](COS(=O)(=O)O)[C@H](O)[C@H](OS(=O)(=O)O)[C@H]2O)[C@H](O)[C@H]1O` [Example 11-1, Disodium 2-tetradecylhexadecyl O-β-D-galactopyranosyl-(1→4)-β-D-glucopyranoside 3',6'-disulfate] are 82% and 100%.
Regarding `CCCC(CCC)CO[C@@H]1O[C@H](CO)[C@H](O)[C@H](OS(=O)(=O)O)[C@H]1O` [Example 4, Sodium 2-pronylpentyl β-D-galactopyranoside 3-sulfate], the inhibition in vivo at 0.2 mg in assay [3] is 58%; in assay [4] it was 39%.
Take `CCCC(CCC)CO[C@@H]1O[C@H](COS(=O)(=O)O)[C@H](OS(=O)(=O)O)[C@H](OS(=O)(=O)O)[C@H]1OS(=O)(=O)O` [Example 7-2, tetrasodium 2-propylpentyl β-D-galactopyranoside 2,3,4,6-tetrasulfate]: the inhibition in vivo at 0.2 mg in assay [3] and in assay [4] was 42% in each case.
